Inconclusive results and toxic doses are left out.
Tested on: P388 leukemia ip, CD2F1 mice, survival T/C
Assay: NCI In Vivo Anticancer Drug Screen. Data for tumor model P388 Leukemia (intraperitoneal) in CD2F1 (CDF1) mice
Details: endpoint: median survival time, higher = longer survival
Method in brief: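 Mice carrying the transplanted tumor received test compound or vehicle. Survival was recorded in each group, and the value is the treated-group measurement divided by that of the vehicle-treated control group.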

[1] = dose: 50.0 mg/kg/injection, schedule: Q01DX009 (ip), vehicle: saline
[2] = dose: 100.0 mg/kg/injection, schedule: Q01DX009 (ip), vehicle: saline
[3] = dose: 200.0 mg/kg/injection, schedule: Q01DX009 (ip), vehicle: saline
[4] = dose: 100.0 mg/kg/injection, schedule: Q04DX003 (ip), vehicle: saline with Tween-80
[5] = dose: 200.0 mg/kg/injection, schedule: Q04DX003 (ip), vehicle: saline with Tween-80
[6] = dose: 400.0 mg/kg/injection, schedule: Q04DX003 (ip), vehicle: saline with Tween-80
[7] = dose: 50.0 mg/kg/injection, schedule: Q01DX005 (ip), vehicle: Klucel (hydroxypropylcellulose) (HPC)

## COc1cc(C=NC2CCCCC2)cc(OC)c1OC
dose: 100.0 mg/kg/injection, schedule: Q01DX001 (ip), vehicle: saline
  T/C: 104 % of control
dose: 200.0 mg/kg/injection, schedule: Q01DX001 (ip), vehicle: saline
  T/C: 101 % of control
dose: 400.0 mg/kg/injection, schedule: Q01DX001 (ip), vehicle: saline
  T/C: 99 % of control

## CNC(=O)OCc1c(COC(=O)NC)c(-c2c(F)cccc2F)n2c1CCC2
dose: 6.25 mg/kg/injection, schedule: Q01DX009 (ip), vehicle: water
  T/C: 166 % of control
dose: 12.5 mg/kg/injection, schedule: Q01DX009 (ip), vehicle: distilled water + Tween-80
  T/C: 155 % of control
dose: 25.0 mg/kg/injection, schedule: Q01DX009 (ip), vehicle: distilled water + Tween-80
  T/C: 108 % of control
dose: 25.0 mg/kg/injection, schedule: Q01DX009 (ip), vehicle: water
  T/C: 88 % of control

## Cn1c(=O)c2c(ncn2CCN2CCNCC2)n(C)c1=O
dose: 50.0 mg/kg/injection, schedule: Q01DX005 (ip), vehicle: distilled water + alcohol
  T/C: 102 % of control
dose: 100.0 mg/kg/injection, schedule: Q01DX005 (ip), vehicle: distilled water + alcohol
  T/C: 100 % of control
dose: 200.0 mg/kg/injection, schedule: Q01DX005 (ip), vehicle: distilled water + alcohol
  T/C: 100 % of control

## Cn1nnc2c1CN=CN2
[1]
  T/C: 117 % of control
[2]
  T/C: 103 % of control
[3]
  T/C: 112 % of control

## O=c1oc(-c2ccc([N+](=O)[O-])cc2Cl)nc2ccccc12
[1]
  T/C: 106 % of control
[2]
  T/C: 105 % of control
[3]
  T/C: 106 % of control

## CN(C)CCC(=O)c1ccc(Cl)cc1
[1]
  T/C: 106 % of control
[2]
  T/C: 105 % of control

## N=c1nccnn1O
[4]
  T/C: 100 % of control
[5]
  T/C: 99 % of control
[6]
  T/C: 100 % of control

## COc1cc(CCN=Cc2cccnc2)c([N+](=O)[O-])cc1OC
[7]
  T/C: 101 % of control
dose: 100.0 mg/kg/injection, schedule: Q01DX005 (ip), vehicle: Klucel (hydroxypropylcellulose) (HPC)
  T/C: 100 % of control
dose: 200.0 mg/kg/injection, schedule: Q01DX005 (ip), vehicle: Klucel (hydroxypropylcellulose) (HPC)
  T/C: 100 % of control

## CC(/C=C/c1ccccc1)=N\NC(N)=O
[1]
  T/C: 105 % of control
[2]
  T/C: 115 % of control
[3]
  T/C: 118 % of control

## O=C(OCc1ccccc1)C(Cc1c[nH]c2ccccc12)n1cnc2ccccc2c1=O (centres undefined)
dose: 12.5 mg/kg/injection, schedule: Q01DX005 (ip), vehicle: Klucel (hydroxypropylcellulose) (HPC)
  T/C: 97 % of control
dose: 25.0 mg/kg/injection, schedule: Q01DX005 (ip), vehicle: Klucel (hydroxypropylcellulose) (HPC)
  T/C: 97 % of control
[7]
  T/C: 96 % of control

## COc1ccc(C2SCC(=O)N2c2nncs2)c(OC)c1 (centres undefined)
dose: 60.0 mg/kg/injection, schedule: Q01DX005 (ip), vehicle: Klucel (hydroxypropylcellulose) (HPC)
  T/C: 99 % of control
dose: 120.0 mg/kg/injection, schedule: Q01DX005 (ip), vehicle: Klucel (hydroxypropylcellulose) (HPC)
  T/C: 106 % of control
dose: 240.0 mg/kg/injection, schedule: Q01DX005 (ip), vehicle: Klucel (hydroxypropylcellulose) (HPC)
  T/C: 110 % of control

## CCCCCCCCCCNC1CC(OC2CC(O)(C(C)=O)Cc3c(O)c4c(c(O)c32)C(=O)c2c(OC)cccc2C4=O)OC(C)C1O (centres undefined)
dose: 4.7 mg/kg/injection, schedule: Q04DX003 (ip), vehicle: water
  T/C: 101 % of control
dose: 9.4 mg/kg/injection, schedule: Q04DX003 (ip), vehicle: water
  T/C: 97 % of control
dose: 18.8 mg/kg/injection, schedule: Q04DX003 (ip), vehicle: water
  T/C: 106 % of control
dose: 37.5 mg/kg/injection, schedule: Q04DX003 (ip), vehicle: water
  T/C: 92 % of control

## C=CCn1ccn(C)c1=S
[4]
  T/C: 101 % of control
[5]
  T/C: 98 % of control
[6]
  T/C: 102 % of control

## OCCOc1ccc2ccccc2c1-c1c(OCCO)ccc2ccccc12
dose: 50.0 mg/kg/injection, schedule: Q04DX003 (ip), vehicle: saline with Tween-80
  T/C: 100 % of control
[4]
  T/C: 100 % of control
[5]
  T/C: 100 % of control
[6]
  T/C: 100 % of control

— PubChem BioAssay AID330 (DTP/NCI, 2004)
